# Laboratory results reported in article PMC9501633, “Synthesis, Characterisation and Mechanism of Action of Anticancer 3-Fluoroazetidin-2-ones” (Pharmaceuticals, 2022).
# Legend:
# CCRF-CEM = assay: NCI 60 cell line screen, Leukaemia; format: cell-based, human; settings: for inhibition at 10 µM / Growth %: one dose 10 µM
# T-47D = assay: NCI 60 cell line screen, Breast; format: cell-based, human; settings: for inhibition at 10 µM: Homo sapiens, T47D; for inhibition at 10 µM / Growth %: one dose 10 µM
# SK-OV-3 = assay: NCI 60 cell line screen, Ovarian; format: cell-based, human; settings: for inhibition at 10 µM / Growth %: one dose 10 µM
# NCI-H226 = assay: NCI 60 cell line screen, NSCLung; format: cell-based, human; settings: for inhibition at 10 µM / Growth %: one dose 10 µM
# NCI/ADR-RES = assay: NCI 60 cell line screen, Ovarian; format: cell-based, human; settings: for inhibition at 10 µM / Growth %: one dose 10 µM
# MCF7 = assay: NCI 60 cell line screen, Breast; format: cell-based, human; settings: for inhibition at 10 µM: MCF7, MCF7; for inhibition at 10 µM / Growth % / Inhibition %: one dose 10 µM
# RXF 393 = assay: NCI 60 cell line screen, Renal; format: cell-based, human; settings: for inhibition at 10 µM / Growth %: one dose 10 µM
# SK-MEL-2 = assay: NCI 60 cell line screen, Melanoma; format: cell-based, human; settings: for inhibition at 10 µM / Growth %: one dose 10 µM
# NCI-H322M = assay: NCI 60 cell line screen, NSCLung; format: cell-based, human; settings: for inhibition at 10 µM / Growth %: one dose 10 µM
# K-562 = assay: NCI 60 cell line screen, Leukaemia; format: cell-based, human; settings: for inhibition at 10 µM: K562, one dose 10 µM; for Growth %: one dose 10 µM
# SF-268 = assay: NCI 60 cell line screen, CNS; format: cell-based, human; settings: for inhibition at 10 µM / Growth %: one dose 10 µM
# U251 = assay: NCI 60 cell line screen, CNS; format: cell-based, human; settings: for inhibition at 10 µM: U-251, one dose 10 µM; for Growth %: one dose 10 µM
# OVCAR-3 = assay: NCI 60 cell line screen, Ovarian; format: cell-based, human; settings: for inhibition at 10 µM / Growth %: one dose 10 µM
# M14 = assay: NCI 60 cell line screen, Melanoma; format: cell-based, human; settings: for inhibition at 10 µM / Growth %: one dose 10 µM; for GI50: 5-dose, 48 h
# HCC-2998 = assay: NCI 60 cell line screen, Colon; format: cell-based, human; settings: for inhibition at 10 µM / Growth %: one dose 10 µM
# NCI-H522 = assay: NCI 60 cell line screen, NSCLung; format: cell-based, human; settings: for inhibition at 10 µM / Growth %: one dose 10 µM
# MDA-MB-231/ATCC = assay: NCI 60 cell line screen, Breast; format: cell-based, human; settings: for inhibition at 10 µM / Growth %: one dose 10 µM
# PC-3 = assay: NCI 60 cell line screen, Prostate; format: cell-based, human; settings: for inhibition at 10 µM / Growth %: one dose 10 µM
# UO-31 = assay: NCI 60 cell line screen, Renal; format: cell-based, human; settings: for inhibition at 10 µM / Growth %: one dose 10 µM
# OVCAR-5 = assay: NCI 60 cell line screen, Ovarian; format: cell-based, human; settings: for inhibition at 10 µM / Growth %: one dose 10 µM
# EKVX = assay: NCI 60 cell line screen, NSCLung; format: cell-based, human; settings: for inhibition at 10 µM / Growth %: one dose 10 µM
# [1] = system: MCF-7 human breast cancer cells; assay: AlamarBlue cell viability assay; format: cell-based; settings: Homo sapiens, MCF7, 72 h
# Description: The antiproliferative potential of the synthesised 3-fluoro β-lactams 26–35 and 3,3-difluoro β-lactams 36–45 was evaluated in MCF-7 human breast cancer cells using the AlamarBlue assay, with CA-4 as reference compound (Figure 3). […] The results for the preliminary in vitro antiproliferative screen for 3-fluoro β-lactam compounds (26–29), which contain different substituents at the para position in the B ring, are presented in Figure 3A.
# Cells were seeded at a density of 5 × 10^3 cells/well (MCF-7 and MDA-MB-231) and 1 × 10^4 cells/well (HEK-293T) in 96-well plates (200 μL per well). After 24 h, cells were then treated with medium alone, with vehicle (1% ethanol (v/v)) or with CA-4 or β-lactam compounds at 1 μM and 10 μM concentrations. […] Cell proliferation for MCF-7 cells was analysed with the AlamarBlue assay (Invitrogen Corp.) as previously described by us. After 72 h, AlamarBlue (10% (v/v)) was added to each well, and plates were incubated for 3–5 h at 37 °C in the dark. Fluorescence results were obtained with a 96-well fluorimeter with excitation at 530 nm and emission at 590 nm with results recorded as percentage viability relative to vehicle control (100%). Dose–response curves were obtained and IC50 values (concentration of drug resulting in 50% reduction in cell survival) were calculated using Prism (GraphPad Software, Inc., La Jolla, CA, USA).
# Figure 3 Preliminary cell viability data for 3-fluoro and 3,3-difluoro β-lactam compounds. (A) 3-Fluoro β-lactam compounds containing different para-substituent ring B 26–29; 3-fluoro β-lactam compounds containing different meta-substituent ring B 30, 32–35; (B) 3-difluoro β-lactam compounds containing different para-substituent ring B 36–39; 3-difluoro β-lactam compounds containing different meta-substituent ring B 40, 42–45 in MCF-7 breast cancer cells. Cell proliferation of MCF-7 cells was determined with an AlamarBlue assay (seeding density […] for 96-well plates). Compound concentrations of either 10 μM or 1 μM for 72 h were used to treat the cells with control wells containing vehicle ethanol (1% v/v) and CA-4 (10 μM and 1 μM). The mean value for three experiments is shown with the ± S.E.M. for three independent experiments.
compound,measurement,setting,value
"CCOc1ccc(C2N(c3cc(OC)c(OC)c(OC)c3)C(=O)C2(F)F)cc1 (stereo not shown) [Compound 37, 4-(4-Ethoxyphenyl)-3,3-difluoro-1-(3,4,5-trimethoxyphenyl)azetidin-2-one]",inhibition at 10 µM,CCRF-CEM; Homo sapiens,89.8%
same,Growth %,CCRF-CEM,10.2%
same,inhibition at 10 µM,T-47D,30%
same,Growth %,T-47D,70.03%
same,inhibition at 10 µM,SK-OV-3; Homo sapiens,28.1%
same,Growth %,SK-OV-3,71.89%
same,inhibition at 10 µM,NCI-H226; Homo sapiens,29%
same,Growth %,NCI-H226,71.01%
same,inhibition at 10 µM,NCI/ADR-RES; Homo sapiens,71.1%
same,Growth %,NCI/ADR-RES,28.94%
same,inhibition at 10 µM,MCF7; Homo sapiens,82.8%
same,Growth %,MCF7; MCF7,17.19%
same,Inhibition %,MCF7; MCF7,82.8%
same,inhibition at 10 µM,RXF 393; Homo sapiens,45.8%
same,Growth %,RXF 393,54.19%
same,inhibition at 10 µM,SK-MEL-2; Homo sapiens,8.22%
same,Growth %,SK-MEL-2,91.78%
same,inhibition at 10 µM,NCI-H322M; Homo sapiens,32.8%
same,Growth %,NCI-H322M,67.23%
same,inhibition at 10 µM,K-562; Homo sapiens,91.5%
same,Growth %,K-562,8.49%
same,inhibition at 10 µM,SF-268; Homo sapiens,47.6%
same,Growth %,SF-268,52.38%
same,inhibition at 10 µM,U251; Homo sapiens,63.8%
same,Growth %,U251,36.19%
same,inhibition at 10 µM,OVCAR-3; Homo sapiens,92.8%
same,Growth %,OVCAR-3,7.25%
same,inhibition at 10 µM,M14; Homo sapiens,72.5%
same,Growth %,M14,27.45%
same,inhibition at 10 µM,HCC-2998; Homo sapiens,18.3%
same,Growth %,HCC-2998,81.66%
same,inhibition at 10 µM,NCI-H522; Homo sapiens,80.7%
same,Growth %,NCI-H522,19.28%
same,inhibition at 10 µM,MDA-MB-231/ATCC; Homo sapiens,53.9%
same,Growth %,MDA-MB-231/ATCC,46.12%
same,inhibition at 10 µM,PC-3; Homo sapiens,62.7%
same,Growth %,PC-3,37.3%
same,inhibition at 10 µM,UO-31; Homo sapiens,48.1%
same,Growth %,UO-31,51.9%
same,inhibition at 10 µM,OVCAR-5; Homo sapiens,33.5%
same,Growth %,OVCAR-5,66.47%
same,inhibition at 10 µM,EKVX; Homo sapiens,24.7%
same,Growth %,EKVX,75.34%
"COc1ccc(C2C(F)C(=O)N2c2cc(OC)c(OC)c(OC)c2)cc1F (stereo not shown) [Compound 33, 3-Fluoro-4-(3-fluoro-4-methoxyphenyl)-1-(3,4,5-trimethoxyphenyl)azetidin-2-one]",TGI,"CCRF-CEM; 5-dose, 48 h",>100000 nM
same,GI50,"CCRF-CEM; Homo sapiens, 5-dose, 48 h",47.1 nM
same,inhibition at 10 µM,CCRF-CEM; Homo sapiens,86.8%
same,Growth %,CCRF-CEM,13.16%
same,TGI,"T-47D; 5-dose, 48 h",>100000 nM
same,inhibition at 10 µM,T-47D,25.1%
same,Growth %,T-47D,74.94%
same,TGI,"SK-OV-3; 5-dose, 48 h",>100000 nM
same,GI50,"SK-OV-3; Homo sapiens, 5-dose, 48 h",3450 nM
same,inhibition at 10 µM,SK-OV-3; Homo sapiens,66.6%
same,Growth %,SK-OV-3,33.36%
same,TGI,"NCI-H226; 5-dose, 48 h",>100000 nM
same,GI50,"NCI-H226; Homo sapiens, 5-dose, 48 h",22200 nM
same,inhibition at 10 µM,NCI-H226; Homo sapiens,41%
same,Growth %,NCI-H226,58.99%
same,GI50,"NCI/ADR-RES; 5-dose, 48 h",42.4 nM
same,TGI,"NCI/ADR-RES; 5-dose, 48 h",>100000 nM
same,GI50,"NCI/ADR-RES; Homo sapiens, 48 h, 5-dose",42 nM
same,inhibition at 10 µM,NCI/ADR-RES; Homo sapiens,91.6%
same,Growth %,NCI/ADR-RES,8.4%
same,inhibition at 10 µM,MCF7; Homo sapiens,87.2%
same,GI50,"MCF7; Homo sapiens, MCF7, 5-dose, 48 h",36.4 nM
same,TGI,"MCF7; MCF7, 5-dose, 48 h",>100000 nM
same,Growth %,MCF7; MCF7,12.83%
same,Inhibition %,MCF7; MCF7,87.2%
same,viability at 1 µM,"[1]; MCF-7, 1 μM, 72 h, read-out: viable cells remaining",37%
same,IC50,"[1]; MCF-7, 72 h",95 nM
same,GI50,"RXF 393; 5-dose, 48 h",39.8 nM
same,TGI,"RXF 393; 5-dose, 48 h",60000 nM
same,GI50,"RXF 393; Homo sapiens, RXF 393, 48 h, 5-dose, 48 h",39 nM
same,inhibition at 10 µM,RXF 393; Homo sapiens,71.2%
same,Growth %,RXF 393,28.8%
same,TGI,"SK-MEL-2; 5-dose, 48 h",>100000 nM
same,GI50,"SK-MEL-2; Homo sapiens, 5-dose, 48 h",303 nM
same,inhibition at 10 µM,SK-MEL-2; Homo sapiens,41.2%
same,Growth %,SK-MEL-2,58.83%
same,TGI,"NCI-H322M; 5-dose, 48 h",>100000 nM
same,GI50,"NCI-H322M; Homo sapiens, 5-dose, 48 h",1630 nM
same,inhibition at 10 µM,NCI-H322M; Homo sapiens,53.5%
same,Growth %,NCI-H322M,46.45%
same,GI50,"K-562; 5-dose, 48 h",38.3 nM
same,TGI,"K-562; 5-dose, 48 h",>100000 nM
same,GI50,"K-562; Homo sapiens, K562, 48 h, 5-dose, 48 h",38 nM
same,inhibition at 10 µM,K-562; Homo sapiens,90.5%
same,Growth %,K-562,9.45%
same,TGI,"SF-268; 5-dose, 48 h",>100000 nM
same,GI50,"SF-268; Homo sapiens, 5-dose, 48 h",324 nM
same,inhibition at 10 µM,SF-268; Homo sapiens,66.9%
same,Growth %,SF-268,33.13%
same,TGI,"U251; 5-dose, 48 h",>100000 nM
same,GI50,"U251; Homo sapiens, U-251, 5-dose, 48 h",23.6 nM
same,inhibition at 10 µM,U251; Homo sapiens,88.1%
same,Growth %,U251,11.86%
same,TGI,"OVCAR-3; 5-dose, 48 h",492 nM
same,GI50,"OVCAR-3; Homo sapiens, 5-dose, 48 h",46.5 nM
same,inhibition at 10 µM,OVCAR-3; Homo sapiens,104%
same,Growth %,OVCAR-3,-4.18%
same,GI50,M14,25.4 nM
same,GI50,"M14; Homo sapiens, M14, 48 h",25 nM
same,inhibition at 10 µM,M14; Homo sapiens,98.1%
same,Growth %,M14,1.91%
same,TGI,"HCC-2998; 5-dose, 48 h",>100000 nM
same,GI50,"HCC-2998; Homo sapiens, 5-dose, 48 h",406 nM
same,inhibition at 10 µM,HCC-2998; Homo sapiens,67.1%
same,Growth %,HCC-2998,32.93%
same,GI50,"NCI-H522; 5-dose, 48 h",38.3 nM
same,TGI,"NCI-H522; 5-dose, 48 h",>100000 nM
same,GI50,"NCI-H522; Homo sapiens, NCI-H522, 48 h, 5-dose, 48 h",38 nM
same,inhibition at 10 µM,NCI-H522; Homo sapiens,108%
same,Growth %,NCI-H522,-8.46%
same,TGI,"MDA-MB-231/ATCC; 5-dose, 48 h",>100000 nM
same,GI50,"MDA-MB-231/ATCC; Homo sapiens, 5-dose, 48 h",355 nM
same,inhibition at 10 µM,MDA-MB-231/ATCC; Homo sapiens,80.3%
same,Growth %,MDA-MB-231/ATCC,19.65%
same,TGI,"PC-3; 5-dose, 48 h",>100000 nM
same,GI50,"PC-3; Homo sapiens, 5-dose, 48 h",42 nM
same,inhibition at 10 µM,PC-3; Homo sapiens,76.9%
same,Growth %,PC-3,23.13%
same,TGI,"UO-31; 5-dose, 48 h",>100000 nM
same,GI50,"UO-31; Homo sapiens, 5-dose, 48 h",171 nM
same,inhibition at 10 µM,UO-31; Homo sapiens,56.8%
same,Growth %,UO-31,43.2%
same,TGI,"OVCAR-5; 5-dose, 48 h",>100000 nM
same,GI50,"OVCAR-5; Homo sapiens, 5-dose, 48 h",423 nM
same,inhibition at 10 µM,OVCAR-5; Homo sapiens,56.4%
same,Growth %,OVCAR-5,43.57%
same,TGI,"EKVX; 5-dose, 48 h",>100000 nM
same,GI50,"EKVX; Homo sapiens, 5-dose, 48 h",203 nM
same,inhibition at 10 µM,EKVX; Homo sapiens,27.8%
same,Growth %,EKVX,72.16%
